Reference: PubChem BioAssay (NCI)
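Test compounds were applied to cells in 96-well plates for 48 hours at 5 doses. TGI marks complete inhibition of growth.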

What was measured:
Assay in all cases: NCI anticancer screen, dose series, 48 h
MDA-MB-231 breast = tested on: MDA-MB-231 breast
HOP-62 NSCLC = tested on: HOP-62 NSCLC
SF-268 CNS = tested on: SF-268 CNS
786-0 renal = tested on: 786-0 renal
A498 renal = tested on: A498 renal
OVCAR-3 ovarian = tested on: OVCAR-3 ovarian
KM12 colon = tested on: KM12 colon
SN12C renal = tested on: SN12C renal
SF-539 CNS = tested on: SF-539 CNS
SW-620 colon = tested on: SW-620 colon
MOLT-4 leukemia = tested on: MOLT-4 leukemia
SK-MEL-5 melanoma = tested on: SK-MEL-5 melanoma
DU-145 prostate = tested on: DU-145 prostate
RXF 393 renal = tested on: RXF 393 renal
HCC-2998 colon = tested on: HCC-2998 colon
HT29 colon = tested on: HT29 colon
MCF7 breast = tested on: MCF7 breast
UO-31 renal = tested on: UO-31 renal
OVCAR-8 ovarian = tested on: OVCAR-8 ovarian
BT-549 breast = tested on: BT-549 breast
SK-MEL-2 melanoma = tested on: SK-MEL-2 melanoma
UACC-257 melanoma = tested on: UACC-257 melanoma
SF-295 CNS = tested on: SF-295 CNS
LOX IMVI melanoma = tested on: LOX IMVI melanoma
NCI-H226 lung = tested on: NCI-H226 lung
SK-MEL-28 melanoma = tested on: SK-MEL-28 melanoma
CCRF-CEM leukemia = tested on: CCRF-CEM leukemia
HCT-116 colon = tested on: HCT-116 colon
SNB-75 CNS = tested on: SNB-75 CNS
HL-60(TB) leukemia = tested on: HL-60(TB) leukemia
NCI-H460 lung = tested on: NCI-H460 lung
OVCAR-4 ovarian = tested on: OVCAR-4 ovarian
OVCAR-5 ovarian = tested on: OVCAR-5 ovarian
HOP-92 NSCLC = tested on: HOP-92 NSCLC
MDA-MB-435 = tested on: MDA-MB-435
SNB-19 CNS = tested on: SNB-19 CNS
UACC-62 melanoma = tested on: UACC-62 melanoma
HCT-15 colon = tested on: HCT-15 colon
HS 578T breast = tested on: HS 578T breast
ACHN renal = tested on: ACHN renal
MALME-3M melanoma = tested on: MALME-3M melanoma
T-47D breast = tested on: T-47D breast
TK-10 renal = tested on: TK-10 renal
U251 CNS = tested on: U251 CNS
SK-OV-3 ovarian = tested on: SK-OV-3 ovarian
CAKI-1 renal = tested on: CAKI-1 renal
COLO 205 colon = tested on: COLO 205 colon
EKVX NSCLC = tested on: EKVX NSCLC
A549 NSCLC = tested on: A549 NSCLC
NCI-H522 lung = tested on: NCI-H522 lung
PC-3 prostate = tested on: PC-3 prostate
NCI/ADR-RES ovarian = tested on: NCI/ADR-RES ovarian
IGROV1 ovarian = tested on: IGROV1 ovarian
MDA-N = tested on: MDA-N
M14 melanoma = tested on: M14 melanoma
NCI-H23 lung = tested on: NCI-H23 lung
K-562 leukemia = tested on: K-562 leukemia
RPMI-8226 leukemia = tested on: RPMI-8226 leukemia
SR leukemia = tested on: SR leukemia

`CN(CCCNC(=O)c1[nH]nc2c1ccc1ccccc12)CCCNC(=O)c1[nH]nc2c1ccc1ccccc12` showed a TGI (MDA-MB-231 breast) of 23.4 µM, a TGI (HOP-62 NSCLC) of 34.6 µM and a TGI (SF-268 CNS) of 28.1 µM. The TGI (786-0 renal) was 22.9 µM, the TGI (A498 renal) was 31.9 µM and the TGI (OVCAR-3 ovarian) was 29 µM. It also gave a TGI (KM12 colon) of 39.7 µM, a TGI (SN12C renal) of 30.1 µM and a TGI (SF-539 CNS) of 24 µM. For the same compound, the TGI (SW-620 colon) was 35.2 µM, the TGI (MOLT-4 leukemia) was 26.2 µM and the TGI (SK-MEL-5 melanoma) was 17 µM. It also gave a TGI (DU-145 prostate) of 31.8 µM, a TGI (RXF 393 renal) of 30.5 µM and a TGI (HCC-2998 colon) of 4.13 µM. For the same compound, the TGI (HT29 colon) was 34.6 µM, the TGI (MCF7 breast) was 28.7 µM and the TGI (UO-31 renal) was 31.4 µM. For the same compound, the TGI (OVCAR-8 ovarian) was 30.9 µM, the TGI (BT-549 breast) was 29.4 µM and the TGI (SK-MEL-2 melanoma) was 23.6 µM. The TGI (UACC-257 melanoma) was 16.9 µM, the TGI (SF-295 CNS) was 32.5 µM and the TGI (LOX IMVI melanoma) was 25.9 µM. The TGI (NCI-H226 lung) was 30.7 µM, the TGI (SK-MEL-28 melanoma) was 4.54 µM and the TGI (CCRF-CEM leukemia) was 29.4 µM. It also gave a TGI (HCT-116 colon) of 25.2 µM, a TGI (SNB-75 CNS) of 31.3 µM and a TGI (HL-60(TB) leukemia) of 10.4 µM. It also gave a TGI (NCI-H460 lung) of 38 µM, a TGI (OVCAR-4 ovarian) of 37.4 µM and a TGI (OVCAR-5 ovarian) of 37.2 µM. It also gave a TGI (HOP-92 NSCLC) of 28.3 µM, a TGI (MDA-MB-435) of 7.71 µM and a TGI (SNB-19 CNS) of 37.6 µM. It also gave a TGI (UACC-62 melanoma) of 21.6 µM, a TGI (HCT-15 colon) of 31.2 µM and a TGI (HS 578T breast) of 33.5 µM. For the same compound, the TGI (ACHN renal) was 31.4 µM, the TGI (MALME-3M melanoma) was 22.4 µM and the TGI (T-47D breast) was 36.1 µM. It also gave a TGI (TK-10 renal) of 31.8 µM, a TGI (U251 CNS) of 28.4 µM and a TGI (SK-OV-3 ovarian) of 34.2 µM. For the same compound, the TGI (CAKI-1 renal) was 33.6 µM, the TGI (COLO 205 colon) was 10.9 µM and the TGI (EKVX NSCLC) was 38.8 µM. The TGI (A549 NSCLC) was 37.6 µM, the TGI (NCI-H522 lung) was 30.8 µM and the TGI (PC-3 prostate) was 27.9 µM. For the same compound, the TGI (NCI/ADR-RES ovarian) was > 100 µM, the TGI (IGROV1 ovarian) was 30.9 µM and the TGI (MDA-N) was 4.52 µM. The TGI (M14 melanoma) was 20.1 µM and the TGI (NCI-H23 lung) was 33 µM.
`CCCC(CCC(=O)O)(CCC(=O)O)[N+](=O)[O-]` was tested, and the TGI (MDA-MB-231 breast) was > 100 µM, the TGI (K-562 leukemia) was > 100 µM and the TGI (SF-268 CNS) was > 100 µM. The TGI (786-0 renal) was > 100 µM, the TGI (KM12 colon) was > 100 µM and the TGI (SN12C renal) was > 100 µM. The TGI (SF-539 CNS) was > 100 µM, the TGI (SW-620 colon) was > 100 µM and the TGI (MOLT-4 leukemia) was > 100 µM. For the same compound, the TGI (SK-MEL-5 melanoma) was > 100 µM, the TGI (DU-145 prostate) was > 100 µM and the TGI (RXF 393 renal) was > 100 µM. The TGI (HT29 colon) was > 100 µM, the TGI (MCF7 breast) was > 100 µM and the TGI (UO-31 renal) was > 100 µM. The TGI (OVCAR-8 ovarian) was > 100 µM, the TGI (BT-549 breast) was > 100 µM and the TGI (SK-MEL-2 melanoma) was > 100 µM. The TGI (UACC-257 melanoma) was > 100 µM, the TGI (SF-295 CNS) was > 100 µM and the TGI (NCI-H226 lung) was > 100 µM. For the same compound, the TGI (HCT-116 colon) was > 100 µM, the TGI (SNB-75 CNS) was > 100 µM and the TGI (HL-60(TB) leukemia) was > 100 µM. The TGI (NCI-H460 lung) was > 100 µM, the TGI (OVCAR-5 ovarian) was > 100 µM and the TGI (HOP-92 NSCLC) was > 100 µM. For the same compound, the TGI (MDA-MB-435) was > 100 µM, the TGI (SNB-19 CNS) was > 100 µM and the TGI (UACC-62 melanoma) was > 100 µM. For the same compound, the TGI (HCT-15 colon) was > 100 µM, the TGI (HS 578T breast) was > 100 µM and the TGI (ACHN renal) was > 100 µM. The TGI (MALME-3M melanoma) was > 100 µM, the TGI (T-47D breast) was > 100 µM and the TGI (RPMI-8226 leukemia) was > 100 µM. The TGI (TK-10 renal) was > 100 µM, the TGI (U251 CNS) was > 100 µM and the TGI (SK-OV-3 ovarian) was > 100 µM. The TGI (SR leukemia) was > 100 µM, the TGI (CAKI-1 renal) was > 100 µM and the TGI (COLO 205 colon) was > 100 µM. The TGI (EKVX NSCLC) was > 100 µM, the TGI (A549 NSCLC) was > 100 µM and the TGI (NCI-H522 lung) was > 100 µM. The TGI (PC-3 prostate) was > 100 µM, the TGI (NCI/ADR-RES ovarian) was > 100 µM and the TGI (IGROV1 ovarian) was > 100 µM. For the same compound, the TGI (MDA-N) was > 100 µM, the TGI (M14 melanoma) was > 100 µM and the TGI (NCI-H23 lung) was > 100 µM.
